≈ marks a conversion by molar mass, not a printed value. Like-named read-outs stand apart in the source and are kept apart here.
Experiments:
S. aureus 25923 = assay: Broth microdilution MIC, S. aureus 25923; format: cell-based, Staphylococcus aureus; settings: Staphylococcus aureus, 25923; read-out: MIC (S. aureus 25923)
S. aureus 29213 = assay: Broth microdilution MIC, S. aureus 29213; format: cell-based, Staphylococcus aureus; settings: Staphylococcus aureus
MRSA 33591 = assay: Broth microdilution MIC, MRSA 33591; format: cell-based; settings: Staphylococcus aureus, read-out: MIC (MRSA 33591)
VRSA [1] = assay: MIC against VRSA (Table 2); format: cell-based; settings: Staphylococcus aureus, read-out: MIC (VRSA)
vanA VRE 700221 = assay: MIC against vanA VRE 700221; format: cell-based, Enterococcus spp.; settings: Enterococcus
VSE 2127 = assay: MIC against VSE 2127; format: cell-based, Enterococcus spp.; settings: Enterococcus; read-out: MIC (VSE 2127)
VRSA [2] = assay: MIC against VRSA strain panel (VRS/NRS strains); format: cell-based; settings: Staphylococcus aureus, read-out: MIC
VRE = assay: MIC / in vitro activity against VRE strain panel; format: cell-based, Enterococcus spp.; settings: for MIC: Enterococcus, VRE, read-out: MIC
MRSA = assay: MIC against MRSA strain panel; format: cell-based; settings: Staphylococcus aureus, the 4th table, read-out: MIC
MSSA = assay: MIC against MSSA strain panel; format: cell-based; settings: Staphylococcus aureus, the 4th table, read-out: MIC

- MIC (S. aureus 25923): 0.5 µg/mL (≈ 1.31 µM)
- MIC (S. aureus 29213; 29213, read-out: MIC (S. aureus 29213)): 0.5 to 1 µg/mL (≈ 1.31 to 2.61 µM)
- MIC (S. aureus 29213; ATCC 29213 / MRSA, ATCC 29213 MRSA, the 4th table, read-out: MIC): 2 µg/mL (≈ 5.23 µM)
- MIC (S. aureus 29213; ATCC 29213 / MRSA, ATCC 29213 MRSA, the 5th table, read-out: MIC): 1 µg/mL (≈ 2.61 µM)
- MIC (MRSA 33591): 1 µg/mL (≈ 2.61 µM)
- MIC (VRSA [1]): 1 µg/mL (≈ 2.61 µM)
- MIC (vanA VRE 700221; VRE, the 2nd table, read-out: MIC (vanA VRE 700221)): 8 µg/mL (≈ 20.9 µM)
- MIC (vanA VRE 700221; vanA VRE 700221, the 3rd table, read-out: MIC): 8 µg/mL (≈ 20.9 µM)
- MIC (VSE 2127): 0.5 µg/mL (≈ 1.31 µM)
- MIC (VRSA [2]; NRS 1 / VRSA, NRS-1 (VRSA), the 3rd table): 4 µg/mL (≈ 10.5 µM)
- MIC (VRSA [2]; NRS 1 / VRSA, NRS-1 VRSA, the 5th table): 4 µg/mL (≈ 10.5 µM)
- MIC (VRSA [2]; NRS 2 / VRSA, NRS-2 VRSA, the 5th table): 2 µg/mL (≈ 5.23 µM)
- MIC (VRSA [2]; VRSA, VRS-1 (VRSA), the 3rd table): 16 µg/mL (≈ 41.8 µM)
- MIC (VRSA [2]; VRSA, VRS-1 VRSA, the 5th table): 16 µg/mL (≈ 41.8 µM)
- MIC (VRSA [2]; VRSA, VRS-2 (VRSA), the 3rd table): 4 µg/mL (≈ 10.5 µM)
- MIC (VRSA [2]; VRSA, VRS-2 VRSA, the 5th table): 4 µg/mL (≈ 10.5 µM)
- MIC (VRSA [2]; VRSA, VRS-3a VRSA, the 5th table): 4 µg/mL (≈ 10.5 µM)
- MIC (VRSA [2]; VRSA, VRS-3b VRSA, the 5th table): > 64 µg/mL
- MIC (VRSA [2]; VRSA, VRS-4 (VRSA), the 3rd table): 4 µg/mL (≈ 10.5 µM)
- MIC (VRSA [2]; VRSA, VRS-4 VRSA, the 5th table): 8 µg/mL (≈ 20.9 µM)
- MIC (VRSA [2]; VRSA, VRS-5 VRSA, the 5th table): 8 µg/mL (≈ 20.9 µM)
- MIC (VRSA [2]; VRSA, VRS-6 VRSA, the 5th table): 16 µg/mL (≈ 41.8 µM)
- MIC (VRSA [2]; VRSA, VRS-7 VRSA, the 5th table): 8 µg/mL (≈ 20.9 µM)
- MIC (VRSA [2]; VRSA, VRS-8 VRSA, the 5th table): 16 µg/mL (≈ 41.8 µM)
- MIC (VRSA [2]; VRSA, VRS-9 VRSA, the 5th table): 16 µg/mL (≈ 41.8 µM)
- MIC (VRSA [2]; VRSA, VRS-10 VRSA, the 5th table): 16 µg/mL (≈ 41.8 µM)
- MIC (VRSA [2]; VRSA, VRS-11a VRSA, the 5th table): 16 µg/mL (≈ 41.8 µM)
- MIC (VRSA [2]; VRSA, VRS-11b VRSA, the 5th table): 16 µg/mL (≈ 41.8 µM)
- MIC (VRE; 1593 (VRE), the 3rd table): 8 µg/mL (≈ 20.9 µM)
- MIC (VRE; 1593 VRE, the 4th table): 8 µg/mL (≈ 20.9 µM)
- MIC (VRE; 1751 (VRE), the 3rd table): 4 µg/mL (≈ 10.5 µM)
- MIC (VRE; 1751 VRE, the 6th table): 4 µg/mL (≈ 10.5 µM)
- MIC (VRE; 1772 VRE, the 6th table): 8 µg/mL (≈ 20.9 µM)
- MIC (VRE; 1946 VRE, the 6th table): 8 µg/mL (≈ 20.9 µM)
- MIC (VRE; 2059 VRE, the 6th table): 8 µg/mL (≈ 20.9 µM)
- MIC (VRE; 2431 (VRE), the 3rd table): 8 µg/mL (≈ 20.9 µM)
- MIC (VRE; 2431 VRE, the 6th table): 8 µg/mL (≈ 20.9 µM)
- MIC (VRE; 2574 VRE, the 6th table): 8 µg/mL (≈ 20.9 µM)
- MIC (VRE; 3053 VRE, the 6th table): 16 µg/mL (≈ 41.8 µM)
- MIC (VRE; 3183 (VRE), the 3rd table): 4 µg/mL (≈ 10.5 µM)
- MIC (VRE; 3183 VRE, the 6th table): 4 µg/mL (≈ 10.5 µM)
- MIC (VRE; 3190 VRE, the 6th table): 8 µg/mL (≈ 20.9 µM)
- MIC (VRE; 3191 VRE, the 6th table): 8 µg/mL (≈ 20.9 µM)
- MIC (VRE; 3222 (VRE, the 3rd table)): 8 µg/mL (≈ 20.9 µM)
- MIC (VRE; 3222 VRE, the 6th table): 8 µg/mL (≈ 20.9 µM)
- MIC (VRE; 3235 VRE, the 6th table): 8 µg/mL (≈ 20.9 µM)
- MIC (VRE; 3239 VRE, the 6th table): 8 µg/mL (≈ 20.9 µM)
- MIC (VRE; 3241 VRE, the 6th table): 8 µg/mL (≈ 20.9 µM)
- MIC (VRE; 3623 VRE, the 6th table): 8 µg/mL (≈ 20.9 µM)
- MIC (MRSA; 6215 MRSA): 1 µg/mL (≈ 2.61 µM)
- MIC (MRSA; 6217 MRSA): 1 µg/mL (≈ 2.61 µM)
- MIC (MRSA; 6218 MRSA): 1 µg/mL (≈ 2.61 µM)
- MIC (MRSA; 6220 MRSA): 1 µg/mL (≈ 2.61 µM)
- MIC (MRSA; 6231 MRSA): 1 µg/mL (≈ 2.61 µM)
- MIC (MRSA; AR-978 MRSA): 1 µg/mL (≈ 2.61 µM)
- MIC (MRSA; AR-979 MRSA): 1 µg/mL (≈ 2.61 µM)
- MIC (MRSA; AR-993 MRSA): 1 µg/mL (≈ 2.61 µM)
- MIC (MRSA; AR-997 MRSA): 1 µg/mL (≈ 2.61 µM)
- MIC (MSSA; VGP16-94 MSSA): 1 µg/mL (≈ 2.61 µM)
- MIC (MSSA; VGP16-95 MSSA): 2 µg/mL (≈ 5.23 µM)
- MIC (MSSA; VGP16-96 MSSA): 1 µg/mL (≈ 2.61 µM)
- MIC (MSSA; VGP16-97 MSSA): 1 µg/mL (≈ 2.61 µM)
SMILES: CCC1C(c2ccc(C(F)(F)F)cc2)=C(O)C(=O)N1C1CCC(NC)CC1 (stereo not drawn) [Compound 4]
- in vitro activity against vancomycin-resistant Enterococcus spp. (VRE) compared with vancomycin (VRE; FIGS. 4A-4D): superior in vitro activity
